Results reported in PMC9887155, “Kinetics of cone specific G-protein signaling in avian photoreceptor cells” (Frontiers in Molecular Neuroscience, 2023).
Entries after “also recorded” stand apart in the source; their conditions may differ. Ends that are not written are not given here.

Key:
[1] = system: Gtα/Giα chimera (cone specific G protein α-subunit); test: SPR interaction of LWO peptides with immobilized Gtα/Giα chimera; assay type: binding, European robin (Erithacus rubecula); settings: for binding to Gtα/Giα (qualitative): immobilized Gtα/Giα, pH 7.4
Protocol: The peptides representing the cytoplasmic loops of LWO (Figure 1) were purchased from Genscript (Netherlands). Sequences of the peptides were deduced from genetic sequences of the European robin genome ([Dunn et al., 2021]). Two control peptides were ordered containing scrambled sequences of LWO2 and LWO3 assigned as LWO2-sc and LWO3-sc, respectively (Table 1). To the N-terminus of each peptide, a linker (CGAGA or CGAGAG) was added to allow for specific covalent coupling via cysteine. All peptides were ordered to a purity of >90% and contained no further N-terminal modifications. The C-terminus of peptides LWO-1-3 were amidated to simulate a continuation of the peptide chain, while LWO-4 was left unmodified to represent the opsin C-terminus. Quality control by LC–MS was performed by Genscript, and concentrations of the peptides were confirmed by UV–vis measurements.
We used a Gtα/Giα chimera to allow functional expression in E. coli according to previous attempts with bovine Gtα ([Skiba et al., 1996]). Cloning of the Gtα variants was performed by PCR mutagenesis of the plasmid described in [Görtemaker et al. (2022)]. In short, the construct contained an N-terminal 6x histidine tag and SUMO (Small Ubiquitin like MOdifier) protein (for metal affinity purification and subsequent tag cleavage) followed by the Gtα chimera. Truncation of 3 and 6 amino acids was performed using the primers 1 and 2 and 1 and 3, respectively. Sequences are available in Supplementary Table S1. The truncated variants were expressed following the same protocol as the full-length protein.
Purification of the Gtα/Giα chimera was performed as exactly described previously ([Görtemaker et al., 2022]). We used the same procedure for purification of the truncated Gtα variants, but we excluded the final size exclusion chromatography. Protein samples were analyzed by standard analytical techniques such as sodium dodecyl-sulfate polyacrylamide gel electrophoresis (SDS-PAGE) and protein quantification according to established procedures in the laboratory ([Elbers et al., 2018]).
Surface plasmon resonance (SPR) measurements were performed on a Biacore 3,000 (GE Healthcare now Cytiva). We followed the general operation principle that had been described before ([Koch, 2000]; [Komolov et al., 2009]). In the present work, we immobilized the non-myristoylated Gtα/Giα chimera or its truncated variants using CM5 sensor chips (GE Healthcare) for all applications exactly as previously described ([Görtemaker et al., 2022]). Immobilization densities of Gtα/Giα were 2.6–3.4 ng/mm^2. The truncated variants Gt-3AA and Gt-6AA bound to the senor chip surface at densities of 3.1–4.2 ng/mm^2. First, we studied the interaction processes by injection of peptides representing the cytoplasmic regions in LWO (Table 1). Two peptides made from the amino acids present in LWO2 and LWO3, but in scrambled order (Table 1), served as controls. We injected different concentrations (10, 50, 100, and 200 nM or alternatively: 10, 25, 45, 55, 75, and 100 nM) at a flow rate of either 25 μl/min or 50 μl/min in SPR running buffer (10 mM HEPES/NaOH, pH 7.4, 150 mM NaCl, 10 mM MgCl2, 0.005% Tween-20, 3.4 mM EDTA). In addition, we coated control surfaces with ubiquitin-like-protease 1 as previously described ([Görtemaker et al., 2022]). For kinetic investigation of LWO2 binding to Gtα/Giα, we injected different peptide concentrations in random order. Regeneration of the surface was performed with a basic-detergent cocktail adopted from [Andersson et al. (1999)] containing final concentrations of 12.5 mM of ethanolamine, Na2PO4, piperazine, and glycine set to a pH of 11.75, as well as containing 0.2% sodium dodecyl sulfate. Despite the relatively harsh conditions, regeneration was judged to be slightly incomplete. […] With the conditions used, reproducible data was still obtained. Sensorgrams were evaluated by nonlinear curve fitting applying the global fitting approach (BIAevaluation software 4.1, GE Healthcare). […]

Gtα/Giα chimera = test: FRET interaction of dansylated peptides with Gtα/Giα in solution; assay type: binding, European robin (Erithacus rubecula); settings: excitation 280 nm; for decrease of fluorescence emission in the presence of Gtα/Giα: FRET, dansylated peptide and Gtα/Giα each 16.7 μM, GDP 10 μM, incubated on ice in the dark 30 min, pH 7.4; for fluorescence emission maximum: dansylated peptide 16.7 μM, 80 mM Hepes pH 7.4, 40 mM KCl, 150 mM NaCl, 10 mM MgCl2
Protocol: Interaction of the Gtα/Giα chimera with peptide LWO2 and the control peptide LWO2-sc was tested by Förster resonance energy transfer (FRET) measurements. We designed an experiment using fluorescence excitation at 280 nm of endogenous Trp residues in Gtα/Giα and peptide and emission of Trp fluorescence at 334 nm that excited the fluorescence dye 5-Dimethylamino-1-naphthalinsulfonyl chloride (dansyl chloride). The emission spectrum of dansyl chloride was recorded between 400 and 550 nm. For this purpose, we coupled dansyl chloride to free amino groups in LWO2 and LWO2-sc. Peptides were solved in H20 bidest (1 mg/ml) and 66 μl of a peptide solution were mixed with 50 μl borat buffer (0.1 M, pH 9.5). Twenty-five μL dansyl chloride (1 mg/ml in acetone) were added and the solutions were incubated at room temperature for 5 h in darkness. Afterwards, we separated non-reacted dansyl chloride, non-reacted peptides and covalently labeled LWO2 or LWO2-sc by reversed phase liquid chromatography (HPLC) using a LiChrospher® 100 RP-18 (5 μm) column (Merck, Germany) in a Hitachi Primaide HPLC system. The column was equilibrated in 0.1% trifluoro-acetic acid (v/v) in H2O bidest. Separation was achieved by applying a gradient from 0.1% trifluoro-acetic acid (v/v) in H2O bidest to 100% acetonitrile with 0.1% trifluoro-acetic acid (v/v) in 55 min. Peaks were detected at 280 nm and the area was used to calculate the coupling yield that was at 84–97% for both peptides. FRET measurements employing the FRET pair intrinsic tryptophan and attached dansyl were performed with a fluorescence spectrometer from photon Technology International. The basic operation principle was essentially as described before ([Behnen et al., 2009]; [Scholten and Koch, 2011]) using the following modifications. Shortly before recording the spectrum, the dansylated LWO2 (or LWO2-sc) containing fraction of the HPLC elution was diluted in fluorescence buffer (80 mM Hepes pH 7.4, 40 mM KCl, 150 mM NaCl, 10 mM MgCl2) at a final concentration of 16.7 μM. After adding the G protein, the mixtures were incubated on ice in the dark for 30 min. During the measurements with the Gtα/Giα, it was present in GDP-bound conformation ([GDP] = 10 μM). The excitation wavelength was set to 280 nm and the emission spectrum was recorded from 400 to 550 nm. Recording and analysis of the data was performed using Photon Technology International software package FELIX32.

## CGAGAG-NRQFRNCILQLFGKKVDDGSEVSTSRTEVSSVSNSSGS [LWO4, peptide representing the opsin C-terminus of European robin LWO]
[1]; peptide 100 nM
  binding to Gtα/Giα (qualitative): did not indicate a binding process

## CGAGA-GSKSQRARAEQVETAQAKAEISVEK [LWO3-sc]
[1]; peptide 100 nM
  binding to Gtα/Giα (qualitative): did not indicate a binding process

## CGAGA-FRVKDGWINPGKFEVWCKF [LWO2-sc]
[1]; peptide 100 nM
  binding to Gtα/Giα (qualitative): slight decrease in resonance units indicating no binding signal
Gtα/Giα chimera; label-free peptide alone or with Gtα/Giα
  fluorescence emission of label-free peptide (control): No fluorescence emission was also observed

## dansyl-LWO2-sc: LWO2-sc with dansyl chloride coupled to free amino groups (CGAGAFRVKDGWINPGKFEVWCKF; cysteine pairing not given here; also: dansyl coupled to free amino groups)
Gtα/Giα chimera
  decrease of fluorescence emission in the presence of Gtα/Giα: 9,000 relative fluorescence counts
  fluorescence emission maximum: 516 nm

## dansyl-LWO2: LWO2 with dansyl chloride coupled to free amino groups (CGAGAWERWFVVCKPFGNIKFDGK-NH2; cysteine pairing not given here; also: dansyl coupled to free amino groups)
Gtα/Giα chimera
  decrease of fluorescence emission in the presence of Gtα/Giα: 14,000 relative fluorescence counts
  fluorescence emission maximum: 510 nm

## CGAGA-TAKFKKLRHPLNWI [LWO1, peptide representing a cytoplasmic loop of European robin long wavelength opsin]
[1]; peptide 100 nM
  binding to Gtα/Giα (qualitative): did not indicate a binding process

## CGAGAG-AIRAVAAQQKESESTQKAEKEVSR [LWO3, peptide representing the third cytoplasmic loop of European robin LWO]
[1]; peptide 100 nM
  binding to Gtα/Giα (qualitative): slight decrease in RU and a kind of recovery phase; also recorded: did not detect any interaction
[1]; peptide 100 nM, buffer flow after injection, decreased over time
  positive response during subsequent buffer flow: ca. 10 RU
[1]; peptide 200 nM, Supplementary Figure S1
  binding to Gtα/Giα (qualitative), 200 nM: no specific binding process occurred
